Test results taken from ChEMBL document CHEMBL1201862, “PubChem BioAssay data set” (2004).
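48-hour exposure; five concentrations; linearly interpolated endpoints. GI50: concentration for 50% inhibition of growth.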 Activity calls are given as the source filed them. Rule as the data show it: active = GI50 up to about 1.1 µM and inactive = higher.

What was measured:
Test in all cases: DTP human tumour cell line panel, 48 h
786-0 = system: 786-0
CCRF-CEM = system: CCRF-CEM
COLO 205 = system: COLO 205
HCC 2998 = system: HCC 2998
HCT-15 = system: HCT-15
HL-60 = system: HL-60
HOP-92 = system: HOP-92
IGROV-1 = system: IGROV-1
M14 = system: M14
M19-MEL = system: M19-MEL
NCI-H226 = system: NCI-H226
OVCAR-4 = system: OVCAR-4
SK-OV-3 = system: SK-OV-3
SN12C = system: SN12C
SNB-75 = system: SNB-75
KM12 = system: KM12

With CN(C)CCN(C)C(=O)c1cccc2cccc(C(=O)O)c12 the GI50 (786-0) was > 100 µM (inactive), the GI50 (CCRF-CEM) was > 100 µM (inactive) and the GI50 (COLO 205) was > 100 µM (inactive). The GI50 (HCC 2998) was > 100 µM (inactive), the GI50 (HCT-15) was greater than 100 µM and the GI50 (HL-60) was > 100 µM (inactive). The GI50 (HOP-92) was > 100 µM (inactive), the GI50 (IGROV-1) was > 100 µM (inactive) and the GI50 (M14) was > 100 µM (inactive). For the same molecule, the GI50 (M19-MEL) was > 100 µM (inactive), the GI50 (NCI-H226) was > 100 µM (inactive) and the GI50 (OVCAR-4) was > 100 µM (inactive). The GI50 (SK-OV-3) was > 100 µM (inactive), the GI50 (SN12C) was > 100 µM (inactive) and the GI50 (SNB-75) was > 100 µM (inactive).
With CC1(C)OCC(C(O)C2OC(C)(C)OC2/C=N\O)O1 (stereo not given) the GI50 (786-0) was > 100 µM (inactive), the GI50 (CCRF-CEM) was > 100 µM (inactive) and the GI50 (COLO 205) was > 100 µM (inactive). For the same molecule, the GI50 (HCC 2998) was > 100 µM (inactive), the GI50 (HL-60) was > 100 µM (inactive) and the GI50 (HOP-92) was > 100 µM (inactive). For the same molecule, the GI50 (IGROV-1) was > 100 µM (inactive), the GI50 (KM12) was > 100 µM (inactive) and the GI50 (M19-MEL) was > 100 µM (inactive). The GI50 (SK-OV-3) was > 100 µM (inactive) and the GI50 (SNB-75) was > 100 µM (inactive).
CCCCCCCCSC(SCCCCCCCC)=C1C(=O)N(c2ccccc2)N=C1C was tested, and the GI50 (786-0) was 46.1 µM (inactive), the GI50 (CCRF-CEM) was 16.1 µM (inactive) and the GI50 (COLO 205) was 24.7 µM (inactive). For the same molecule, the GI50 (HCC 2998) was 71.3 µM (inactive), the GI50 (HCT-15) was 37.7 µM and the GI50 (HL-60) was 19.2 µM (inactive). For the same molecule, the GI50 (HOP-92) was 31.8 µM (inactive), the GI50 (IGROV-1) was 43.1 µM (inactive) and the GI50 (KM12) was 33.7 µM (inactive). For the same molecule, the GI50 (M14) was 83 µM (inactive), the GI50 (M19-MEL) was 37 µM (inactive) and the GI50 (NCI-H226) was 64.4 µM (inactive). For the same molecule, the GI50 (SK-OV-3) was 77.3 µM (inactive), the GI50 (SN12C) was 33.7 µM (inactive) and the GI50 (SNB-75) was 41.8 µM (inactive).
O=C(O/N=C1\CCCC\C1=C/c1ccccc1)c1ccc([N+](=O)[O-])cc1 was tested, and the GI50 (786-0) was 98.6 µM (inactive), the GI50 (CCRF-CEM) was > 100 µM (inactive) and the GI50 (COLO 205) was > 100 µM (inactive). The GI50 (HCC 2998) was > 100 µM (inactive), the GI50 (HCT-15) was greater than 100 µM and the GI50 (HL-60) was 76.9 µM (inactive). The GI50 (HOP-92) was > 100 µM (inactive), the GI50 (M14) was > 100 µM (inactive) and the GI50 (M19-MEL) was > 100 µM (inactive). The GI50 (NCI-H226) was > 100 µM (inactive), the GI50 (OVCAR-4) was 33.1 µM (inactive) and the GI50 (SK-OV-3) was > 100 µM (inactive). The GI50 (SN12C) was > 100 µM (inactive) and the GI50 (SNB-75) was 41.7 µM (inactive).
In the case of COC(=O)C(C(=O)C(=O)Nc1c(Cl)cc([N+](=O)[O-])cc1Cl)c1csc(-n2nc(C3=CCCCC3)cc2-c2ccccc2)n1 (stereo not given), the GI50 (786-0) is reported as 74 µM (inactive), the GI50 (CCRF-CEM) is reported as 73.5 µM (inactive) and the GI50 (COLO 205) is reported as 32.1 µM (inactive). For the same molecule, the GI50 (HCC 2998) was > 100 µM (inactive), the GI50 (HCT-15) was 36.2 µM and the GI50 (HL-60) was 40 µM (inactive). The GI50 (HOP-92) was 10.1 µM (inactive), the GI50 (KM12) was 45 µM (inactive) and the GI50 (M14) was > 100 µM (inactive). For the same molecule, the GI50 (M19-MEL) was 52.7 µM (inactive), the GI50 (NCI-H226) was 25.4 µM (inactive) and the GI50 (OVCAR-4) was > 100 µM (inactive). For the same molecule, the GI50 (SK-OV-3) was 34.3 µM (inactive), the GI50 (SN12C) was 67.9 µM (inactive) and the GI50 (SNB-75) was 30.7 µM (inactive).
In the case of CC1=CC(C)(C)N=C2SC(c3ccc(Cl)cc3)=NN12, the GI50 (786-0) is reported as 15.1 µM (inactive), the GI50 (CCRF-CEM) is reported as 28.2 µM (inactive) and the GI50 (COLO 205) is reported as 41.1 µM (inactive). The GI50 (HCC 2998) was 25.6 µM (inactive), the GI50 (HCT-15) was 25.4 µM and the GI50 (HL-60) was 12.2 µM (inactive). The GI50 (HOP-92) was 27.4 µM (inactive), the GI50 (IGROV-1) was > 100 µM (inactive) and the GI50 (KM12) was 26 µM (inactive). The GI50 (M14) was 30.5 µM (inactive), the GI50 (M19-MEL) was 32 µM (inactive) and the GI50 (NCI-H226) was 21.1 µM (inactive). For the same molecule, the GI50 (OVCAR-4) was 26.2 µM (inactive) and the GI50 (SK-OV-3) was 46.2 µM (inactive).
In the case of CC12CC[C@@H](C(C)(C)O)C1[C@@H](O)CC1(C)C2CCC2[C@@]3(C)CC[C@H](O)C(C)(C)C3C(O)C[C@]21C (stereo not given in full), the GI50 (786-0) is reported as 12.1 µM (inactive), the GI50 (CCRF-CEM) is reported as 11.3 µM (inactive) and the GI50 (COLO 205) is reported as 15.6 µM (inactive). The GI50 (HCC 2998) was 16.3 µM (inactive), the GI50 (HCT-15) was 11.5 µM and the GI50 (HL-60) was 5.27 µM (inactive). The GI50 (HOP-92) was 17.4 µM (inactive), the GI50 (IGROV-1) was 17.7 µM (inactive) and the GI50 (KM12) was 14.6 µM (inactive). The GI50 (M14) was 19.9 µM (inactive), the GI50 (M19-MEL) was 24.3 µM (inactive) and the GI50 (OVCAR-4) was 13.1 µM (inactive). The GI50 (SN12C) was 13.4 µM (inactive).
CC1CCC(C(C)C)C(O[C@@H]2OC(=O)C[C@@H]2Sc2ccccc2)C1 (stereo not given in full) was tested, and the GI50 (786-0) was 21 µM (inactive), the GI50 (CCRF-CEM) was 7.01 µM (inactive) and the GI50 (COLO 205) was 18.5 µM (inactive). For the same molecule, the GI50 (HCC 2998) was 24.7 µM (inactive), the GI50 (HCT-15) was 19.5 µM and the GI50 (HL-60) was 18.2 µM (inactive). For the same molecule, the GI50 (IGROV-1) was 40.2 µM (inactive), the GI50 (KM12) was 20.3 µM (inactive) and the GI50 (M14) was 23.2 µM (inactive). For the same molecule, the GI50 (M19-MEL) was 24 µM (inactive), the GI50 (OVCAR-4) was 15.9 µM (inactive) and the GI50 (SK-OV-3) was 49.8 µM (inactive). For the same molecule, the GI50 (SN12C) was 16.8 µM (inactive) and the GI50 (SNB-75) was 33.3 µM (inactive).
With O=C(c1ccc2c3c(ccc(C(=O)C(F)(F)F)c13)CC2)C(F)(F)F the GI50 (786-0) was 57.5 µM (inactive), the GI50 (COLO 205) was 21.5 µM (inactive) and the GI50 (HCC 2998) was > 100 µM (inactive). For the same molecule, the GI50 (HCT-15) was 58.7 µM, the GI50 (HOP-92) was 27 µM (inactive) and the GI50 (IGROV-1) was 74 µM (inactive). The GI50 (KM12) was 44.1 µM (inactive), the GI50 (M14) was 34.4 µM (inactive) and the GI50 (M19-MEL) was 35.5 µM (inactive). For the same molecule, the GI50 (NCI-H226) was > 100 µM (inactive), the GI50 (OVCAR-4) was 35.1 µM (inactive) and the GI50 (SK-OV-3) was > 100 µM (inactive). For the same molecule, the GI50 (SN12C) was 92.9 µM (inactive) and the GI50 (SNB-75) was 29.4 µM (inactive).
For CC(C)(C)N/N=C(\Cc1occc(=O)c1O)C(=O)Nc1ccc([N+](=O)[O-])cc1[N+](=O)[O-], the GI50 (786-0) was > 100 µM (inactive), the GI50 (CCRF-CEM) was > 100 µM (inactive) and the GI50 (COLO 205) was > 100 µM (inactive). The GI50 (HCT-15) was greater than 100 µM, the GI50 (HL-60) was > 100 µM (inactive) and the GI50 (HOP-92) was > 100 µM (inactive). For the same molecule, the GI50 (IGROV-1) was > 100 µM (inactive), the GI50 (KM12) was > 100 µM (inactive) and the GI50 (M14) was > 100 µM (inactive). The GI50 (M19-MEL) was > 100 µM (inactive), the GI50 (NCI-H226) was > 100 µM (inactive) and the GI50 (OVCAR-4) was > 100 µM (inactive). The GI50 (SK-OV-3) was > 100 µM (inactive), the GI50 (SN12C) was > 100 µM (inactive) and the GI50 (SNB-75) was > 100 µM (inactive).
